Measurements: patent US7915291B2, “Hepatitis C virus inhibitors” (Bristol-Myers Squibb Company, priority 2002, dated 2011)

Columns and labels:
[1] = molecular target: HCV NS3/4A protease complex, BMS strain (UniProt P27958, C1454S/C1711G, species not given/STRAIN_BMS); assay: Recombinant HCV NS3/4A protease complex FRET peptide assay (BMS strain); format: biochemical, HCV genotype 1a; settings: NS3/4A BMS strain; read-out: IC50 range
Outline: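 Recombinant BMS-strain NS3/4A (His-tagged NS4A with three-lysine tail, E. coli) at 2-3 nM preincubated 1 min with compound, then 2 μM ester-linked NS4A/NS4B-based FRET peptide added. Fluorescence followed in real time ~15 min at 25° C. Percent inhibition from slope of linear fluorescence change versus no-compound control.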

[2] = system: HCV replicon in Huh7 cells; assay: HCV replicon cell-based assay; set-up: species or system HCV strain 1B; settings: Hepatitis C virus, Huh-7; HCV replicon, Huh7 cells; read-out: EC50 range
HCV = settings: cited from earlier work

## C=CC1CC1(NC(=O)[C@@H]1C[C@@H](OCc2ccc3ccccc3c2)CN1C(=O)[C@@H](NC(=O)OC(C)(C)C)C(C)(C)C)C(=O)NS(C)(=O)=O (stereo partly shown) [Compound 454]
[1]
  IC50: 0.1 to 1 µM
[2]
  EC50: 1 to 10 µM

## alpha-interferon and ribavirin
HCV; HCV infected patients, combination therapy
  sustained efficacy, share of patients: 40%

## pegylated alpha-interferon
HCV; HCV patients, monotherapy, recent clinical results
  clinical comparison as monotherapy: superior to unmodified alpha-interferon
